Assay results reported in patent publication US4895937A, “5-ioso-2-pyrimidinone nucleoside” (The Research Foundation of State University of New York, priority 1988, dated 1990).

Tested on: ACG (S1), acyclovir resistant strain of HSV1
Assay: Antiherpes activity, acyclovir resistant strain of HSV1 (S1) (Example 10)
Type: cell-based, HSV-1
Method: IPdR and 5-bromo-2-pyrimidinone-2-deoxyribonucleoside (BrPdR) were tested for antiherpes activity according to procedures described by Cheng, Y.-C., et al. Antimicrob. Agents Chemother (1976) 10, 119.

**Q.** With O=c1ncc(I)cn1[C@H]1C[C@H](O)[C@@H](CO)O1 [IPdR, 1-(2-Deoxy-β-D-Ribofuranosyl)-5-iodo-2-pyrimidinone] as the molecule, how does the activity at 100 µM (Human alphaherpesvirus 1, read-out: plaque-forming units as % of control) read?
**A.** 22%

**Q.** What about the “cross resistance of the more highly ACG-resistant strain” value (S1 compared with Tr7) of the same molecule?
**A.** more cross resistance
